Data taken from patent US20240383954A1, “PEPTIDE INHIBITORS OF INTERLEUKIN-23 RECEPTOR AND THEIR USE TO TREAT INFLAMMATORY DISEASES” (Janssen Biotech, Inc., priority 2020, published 2024).
Positions of bridges follow the written chain, without caps; N, C: chain ends. Non-standard residues stand in square brackets, D forms with d. Residues, ends and D or L forms follow the SMILES beside them. *: point of attachment. Trp(7-Me) = Cc1cccc2c(C[C@H](N)C(=O)O)c[nH]c12; Phe(3R-Me) = C[C@H](c1ccccc1)[C@H](N)C(=O)O; 2Nal = N[C@@H](Cc1ccc2ccccc2c1)C(=O)O; AEF = NCCOc1ccc(C[C@H](N)C(=O)O)cc1; Pen = CC(C)(S)[C@H](N)C(=O)O; Thp = NC1(C(=O)O)CCOCC1; Hexanoyl = CCCCCC(=O)*

Target: IL-23R (Homo sapiens, UniProt Q5VWK5)
Assay: cell-based
Details: PBMC pSTAT3 IC50 (nM), PBMCs from healthy donors, IL-23 5 ng/mL, 30 minutes, phosphorylated STAT3
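Further: cryopreserved PBMCs stimulated at 37 °C in 5% CO2, then lysed, with phosphorylated STAT3 quantified in lysates using a phospho-STAT panel kit.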

IL-23R, sequence (Q5VWK5 24-629): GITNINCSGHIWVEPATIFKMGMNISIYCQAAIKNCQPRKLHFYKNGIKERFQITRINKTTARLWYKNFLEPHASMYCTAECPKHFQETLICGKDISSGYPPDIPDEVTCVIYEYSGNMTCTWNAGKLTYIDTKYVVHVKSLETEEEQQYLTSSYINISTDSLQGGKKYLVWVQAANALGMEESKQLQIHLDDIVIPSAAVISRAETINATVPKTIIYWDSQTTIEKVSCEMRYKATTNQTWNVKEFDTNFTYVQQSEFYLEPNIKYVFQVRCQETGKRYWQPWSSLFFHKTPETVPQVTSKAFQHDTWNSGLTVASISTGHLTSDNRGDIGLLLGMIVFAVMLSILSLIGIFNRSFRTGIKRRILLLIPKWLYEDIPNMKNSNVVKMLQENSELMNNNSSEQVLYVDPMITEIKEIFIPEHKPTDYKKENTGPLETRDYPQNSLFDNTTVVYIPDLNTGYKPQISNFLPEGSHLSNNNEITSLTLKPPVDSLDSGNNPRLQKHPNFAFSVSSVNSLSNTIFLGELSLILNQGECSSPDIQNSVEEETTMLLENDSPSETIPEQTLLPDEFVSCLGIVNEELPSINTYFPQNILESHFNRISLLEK

SMILES	IC50
CC(=O)NCCCC[C@@H]1NC(=O)[C@H](Cc2c[nH]c3c(C)cccc23)NC(=O)[C@H]([C@@H](C)O)NC(=O)[C@H](CC(N)=O)NC(=O)[C@@H](NC(=O)[C@@H](CCCNC(=N)N)NC(C)=O)C(C)(C)SSC(C)(C)[C@@H](C(=O)N[C@@H](Cc2ccc(OCCN)cc2)C(=O)N[C@@H](Cc2ccc3ccccc3c2)C(=O)NC2(C(=O)N[C@@H](CCC(=O)O)C(=O)N[C@@H](CC(N)=O)C(=O)N[C@H](C(N)=O)[C@H](C)c3ccccc3)CCOCC2)NC1=O [Compound 313, MeCO-r-Pen-N-T-7MeTrp-K(Ac)-Pen-AEF-2Nal-THP-E-N-bMePhe(S,R)---CONH2] (Ac-[dR][Pen]NT[Trp(7-Me)]K(Ac)[Pen][AEF][2Nal][Thp]EN[Phe(3R-Me)]-NH2; disulfide 2-7)	21 nM
CCCCCC(=O)NCCCC[C@H](NC(=O)C1(NC(=O)[C@H](Cc2ccc3ccccc3c2)NC(=O)[C@H](Cc2ccc(OCCN)cc2)NC(=O)[C@H]2NC(=O)[C@H](CCC(N)=O)NC(=O)[C@H](Cc3c[nH]c4ccccc34)NC(=O)[C@H]([C@@H](C)O)NC(=O)[C@H](CCC(N)=O)NC(=O)[C@@H](NC(=O)[C@@H](CCCNC(=N)N)NC(C)=O)C(C)(C)SSC2(C)C)CCOCC1)C(=O)N[C@@H](CC(N)=O)C(=O)N[C@@H](Cc1ccccc1)C(N)=O [Compound 59, Ac-[(D)Arg]-[Pen]-Q-T-W-Q-[Pen]-Phe[4-(2-aminoethoxy)]-[2-Nal]-[THP]-[Lys(COPent)]-N-F-NH2] (Ac-[dR][Pen]QTWQ[Pen][AEF][2Nal][Thp]K(Hexanoyl)NF-NH2; disulfide 2-7)	67 nM
CC(=O)NCCCC[C@H](NC(=O)[C@](C)(CCCCN)NC(=O)[C@H](Cc1ccc2ccccc2c1)NC(=O)[C@H](Cc1ccc(OCCN)cc1)NC(=O)[C@H]1NC(=O)[C@H](CCCCNC(=O)C(F)(F)F)NC(=O)[C@H](Cc2c[nH]c3ccccc23)NC(=O)[C@H]([C@@H](C)O)NC(=O)[C@H](CC(N)=O)NC(=O)[C@@H](NC(C)=O)C(C)(C)SSC1(C)C)C(=O)N[C@@H](CC(N)=O)C(=O)NC1(C(N)=O)CCOCC1 [Compound 103, Ac-[Pen]-N-T-W-[Lys(COCF3)]-[Pen]-Phe[4-(2-aminoethoxy)]-[2-Nal]-[a-MeLys]-[Lys(Ac)]-N-[THP]-NH2]	57 nM
COc1ccc(C[C@H](NC(=O)[C@@H]2CSCC[C@H](NC(=O)[C@H](N)CCCNC(=N)N)C(=O)N[C@@H](CCC(N)=O)C(=O)N[C@@H]([C@@H](C)O)C(=O)N[C@@H](Cc3c[nH]c4ccccc34)C(=O)N[C@@H](CCC(N)=O)C(=O)N2)C(=O)N[C@@H](Cc2ccc3ccccc3c2)C(=O)NC2(C(=O)N[C@@H](CCC(=O)O)C(=O)N[C@@H](CC(N)=O)C(=O)NC3(C(N)=O)CCOCC3)CCOCC2)cc1 [Compound 22, [(D)Arg]-[Abu]-Q-T-W-Q-[Cys]-[Phe(4-OMe)]-[2-Nal]-[THP]-E-N-[THP]-NH2]	22 nM
CC(=O)N[C@H](CCCNC(=N)N)C(=O)N[C@H]1CCSC[C@@H](C(=O)N[C@@H](Cc2ccc(OCCN)cc2)C(=O)N[C@@H](Cc2ccc3ccccc3c2)C(=O)NC2(C(=O)N[C@@H](CCC(=O)O)C(=O)N[C@@H](CC(N)=O)C(=O)N[C@@](C)(Cc3ccc4ccccc4c3)C(N)=O)CCOCC2)NC(=O)[C@H](CCC(N)=O)NC(=O)[C@H](Cc2c[nH]c3ccccc23)NC(=O)[C@H]([C@@H](C)O)NC(=O)[C@H](CCC(N)=O)NC1=O [Compound 80, Ac-[(D)Arg]-[Abu]-Q-T-W-Q-[Cys]-Phe[4-(2-aminoethoxy)]-[2-Nal]-[THP]-E-N-[aMe(2-Nal)]-NH2]	46 nM
